{"source": "patent US20250262209A1", "about": "“TREATMENT OF GASTROINTESTINAL DISEASES” (Aclipse Two, Inc., priority 2022, published 2025)", "key": {"[1]": {"test_system": "DSS-induced IBD model in female Balb/c mice", "experiment": "DSS-induced IBD model: body weight, DAI score, colon length and weight", "assay_type": "in vivo", "conditions": "for DAI score: lobeglitazone groups (0.36, 1.20, 3.61 mg/kg PO QD)", "protocol": "The purpose of this study was to test the efficacy of compound lobeglitazone in the DSS-induced IBD model in female Balb/c mice following oral administration. The study was conducted at an AAALAC accredited facility, and all animal study procedures were approved by the Institutional Animal Care and Use Committee (IACUC).\nPrecise amount of lobeglitazone sulfate (lot: EW34258-13-P1; purity: 97.6%) was weighted out into a clean tube, 0.5% CMC was added and vortexed fully, then sonicated 2-3 minutes to get an even suspension. The concentration of the solution was 0.361 mg/ml, 0.120 mg/mL, and 0.036 mg/mL. The dosing solution was freshly made daily until the end of the study. The compound was orally (PO), 10 mL/kg daily dosed for 10 days.\nTotally 125.82 mg cyclosporin A (CSA, purity 98%) was weighed out into a clean tube, 2.055 mL castor oil was added firstly, then 39.046 mL […] (with 0.1% tween80) was added, vortexed fully, then sonicated 10 min to get a clear solution. The concentration of the solution was 3 mg/mL. The compound was PO, 10 mL/kg daily dosed for 10 days.\n5% DSS preparation: […] DSS powder was weighted out into a clean bottle, 1 L Milli Q water was added subsequently, the solution was stirred until it was clear. Then 5% DSS was transferred to water bottle of the animal. 5% DSS was freshly made daily until the end of the study.\nA total of 50 (7 weeks old) female Balb/c were purchased from Beijing Vital River Laboratory Animal Technology Co., Ltd. Animals were acclimatized for 1 week prior to the experiment. All the in vivo experimental procedures were approved by the institutional animal care and use committee (IACUC). All euthanasia was performed using carbon dioxide inhalation and all efforts were made to minimize animal suffering.\nAt the beginning of the study, randomization was performed based on body weight. All animals were randomly assigned to one of six groups (Table 1). The study schedule is described in FIG. 1.\nDAI score was calculated by the sum of weight loss score, stool consistency score, and occult-gross bleeding score. Body weight loss was calculated by comparison with the body weight on day 1. Feces samples were collected from each individual animal, and stool consistency and occult-gross bleeding were evaluated according to Table 2. Stool Consistency was evaluated by the appearance of the feces. Occult-gross bleeding was evaluated using Fecal Occult Blood test strips. Occult bleeding score of 1 will be assigned if light or dark purple color developed within 20 seconds and longer than 15 seconds. Occult bleeding score of 2 was assigned if light or dark purple color developed within 15 seconds. Occult-gross bleeding score of 3 would be assigned if blood was visible in the feces.\nAnimals were euthanized by CO2 at the end of study. Colon length and colon weight (cecum is not included) were recorded, and macroscopic changes were scored based on Table 2. The colon was cleaned using saline, and all feces were removed before weight measurement. The middle part of colon was collected in cassette and fixed in 10% neutral buffered formalin (NBF) for H&E and PAS staining. For left colon, mucosal from colon surface was removed and then snap frozen in liquid nitrogen and store at −80° C. for QT-PCR analysis of TNF-α, IL-10, CCL2, and IL-1β. QT-PCR primers were purchased from Sangon Biotech Co., Ltd.\nIn vivo animal data were presented as mean±SEM. Statistical analysis was performed by one-way ANOVA followed by Dunnett's multiple comparison. […] The difference was considered significance when p<0.05."}, "[2]": {"test_system": "monocytes from PBMC, M1-to-M2 macrophage repolarization", "experiment": "M1-to-M2 macrophage repolarization assay", "assay_type": "cell-based, human", "from_the_text": "The purpose of this study was to evaluate the effects of lobeglitazone and other thiazolidinediones on M1-to-M2 macrophage repolarization. The test articles and vehicles used in this study were lobeglitazone sulfate, pioglitazone HCl, and rosiglitazone.\nM1-to-M2 macrophage repolarization assay timeline were as follows in Table 13.\nDrug concentrations tested in the M1 differentiation assay are as in Table 14.\n• (1) Isolate monocytes from PBMC using StemCell® monocyte isolation kit. • (2) Count cell and adjust the cell density to 0.5×10^6 cells/ml with fresh complete differentiation medium (add 10 μl M-CSF stock (100 μg/ml) 10 ml cell mixture to a final concentration of 50 ng/ml). • (3) Seed isolated monocyte 100 μL per well on 96-well plate. • (4) On day 4, add additional 100 μl medium containing M-CSF • (5) On day 6, add stimulator at 5× final concentration (200 μL medium in each well) to a final concentration of 50 ng/ml. • (6) On day 8, remove medium and replenish with 200 μL cytokine free medium, then add test compound (final concentration in μM) and incubate for 4 days. • (7) On day 12, add IL-4 and incubate for 2 days (add 50 μL of 100 ng/ml IL-4 to each well containing 200 μL medium to reach 20 ng/ml). • (8) On day 14, spin down the plates at 300×g for 5 min and collect the supernatant for cytokine quantification. • (9) M1 and M2 associated macrophage cytokines of interest are as follows in Table 15.\nThe cells are then collected for flow analysis of viability/CD11c/CD163/CD206.\nCell surface marker CD163, CD11c, and CD206 were applied to characterize M2 repolarization via flow cytometry. Controls included No stain and staining with all surface marker antibodies to confirm the optimization of gating strategy."}, "[3]": {"conditions": "lobeglitazone groups (0.36, 1.20, 3.61 mg/kg PO QD 10 days), vs control group"}}}
{"smiles": "COc1ccc(Oc2cc(N(C)CCOc3ccc(CC4SC(=O)NC4=O)cc3)ncn2)cc1", "note": "(stereo not shown) [lobeglitazone, 5-(4-(2-((6-(4-Methoxyphenoxy)pyrimidin-4-yl)(methyl)amino)ethoxy)benzyl)thiazolidine-2,4-dione]", "values": [{"measurement": "body weight changes", "setting": "[1]; 0.36 mg/kg PO QD, vs control group", "result": "no significant body weight changes"}, {"measurement": "body weight changes", "setting": "[1]; 1.20 mg/kg PO QD, vs control group", "result": "no significant body weight changes"}, {"measurement": "body weight changes", "setting": "[1]; 3.61 mg/kg PO QD, day 2, vs control (no drug) group", "result": "significantly reduced"}, {"measurement": "colon length", "setting": "[1]; [3]", "result": "did not significantly increase"}, {"measurement": "colon length/weight ratio", "setting": "[1]; [3]", "result": "did not significantly decrease"}, {"measurement": "colon weight", "setting": "[1]; [3]", "result": "did not significantly change"}, {"measurement": "DAI score", "setting": "[1]; vs control group", "result": "did not significantly reduce"}, {"measurement": "DAI score", "setting": "[1]; vs control group, listed as Lobeglitazone", "result": "did not significantly decrease"}, {"measurement": "concentration at which M1-to-M2 repolarization was promoted (M2 macrophage surface markers, flow cytometry)", "setting": "[2]; CD163, CD11c, CD206, lowest concentration with effect", "result": "~0.05", "unit": "µM"}, {"measurement": "concentration showing remarkable promotion of MDC expression", "setting": "[2]; cytokine analysis (MSD), day 14 supernatant", "result": 0.1, "unit": "µM"}]}
